Laboratory results from patent US20110077402A1, “ADMINISTRATION OF DIPEPTIDYL PEPTIDASE INHIBITORS” (priority 2007, published 2011).

System: plasma glucose
Test: Effect of co-administration with pioglitazone on plasma glucose in db/db mice
Assay type: in vivo
Conditions: male db/db mice, 21 days in powder chow (0.03% succinate salt of Compound I and/or 0.0075% pioglitazone hydrochloride), feeding condition, average (n=7) ± standard deviation; control 472.9 ± 74.6
Description: Male db/db (BKS.Cg-+Lepr^db/+Lepr^db) mice (6 weeks of age, CLEA Japan (Tokyo, Japan)) were divided into 4 groups (n=7 in each group) comprising Group A to Group D. Group A had free access to CE-2 powder chow (CLEA Japan) for 21 days. […] During 21 days of administration of the powder chow, there were not significant differences in the administration amount of the powder chow in the above 4 groups. After 21 days of administration of the powder chow, blood samples were taken from the orbital veins of the mice by capillary pipette under feeding condition, and plasma glucose levels were enzymatically measured by using Autoanalyzer 7080 (Hitachi, Japan). The values in the table means average (n=7)±standard deviation.

Row | Structure (SMILES) | Plasma Glucose [mg/dL]
1 | Cn1c(=O)cc(N2CCC[C@@H](N)C2)n(Cc2cc(F)ccc2C#N)c1=O [Compound I, 2-[6-(3-Amino-piperidin-1-yl)-3-methyl-2,4-dioxo-3,4-dihydro-2H-pyrimidin-1-ylmethyl]-4-fluoro-benzonitrile] | 410.3 ± 47.9
2 | CCc1ccc(CCOc2ccc(CC3SC(=O)NC3=O)cc2)nc1 (centres unmarked) [Pioglitazone, 5-{[4-(2-(5-ethyl-2-pyridyl)ethoxy)phenyl]-methyl}-thiazolidine-2,4-dione] | 394.4 ± 47.9
